Experimental data published in US11124758B2, “Bacteria culture medium and applications thereof” (priority 2013, dated 2021).
Read-outs that look alike come from different tables or passages of the source.

How the values were obtained:
E. coli DH5α strain = test: Shelf life test of antibiotic premixed in culture medium: suppression of E. coli growth after storage; format: cell-based; conditions: for shelf life of culture media containing the antibiotic: 100 μg/ml, LB medium, storage at 4° C.; for suppression of growth of E. coli DH5α after storage: 6, 12, 18 and 24 months at 4° C.
[1] = 4° C., cited from earlier work
[2] = 4° C.; cited from earlier work
[3] = in human body; cited from earlier work
[4] = less than 25° C.; cited from earlier work
[5] = 100 μg/ml or 1 mg/ml in LB liquid and LB agar plate medium, two months of storage at 4° C., incubated overnight at 37° C.
[6] = 10 mg/ml in LB liquid and LB agar plate medium, three months of storage at 4° C.
[7] = 100 mg/ml in LB liquid and LB agar plate medium, four months of storage at 4° C.

## CC1(C)S[C@@H]2[C@H](NC(=O)[C@H](N)c3ccccc3)C(=O)N2[C@H]1C(=O)O [ampicillin]
E. coli DH5α strain; [5]
  suppression of E. coli growth after storage: unable to suppress E. coli growth completely
E. coli DH5α strain
  shelf life of culture media containing the antibiotic: no more than two
E. coli DH5α strain; [6]
  suppression of E. coli growth after storage: unable to suppress E. coli growth completely
E. coli DH5α strain; [7]
  suppression of E. coli growth after storage: unable to suppress E. coli growth completely
[1]; dissolved in glucose injection solution
  time in which activity reduces by 10%: around 1 hour
[1]; dissolved in water or physiological saline (0.9% sodium chloride)
  time in which activity reduces by 10%: 2 to 3 days
[2]
  time liquid culture medium and semi-solid agar culture plate medium containing the antibiotic can be kept: about one

## CC1(C)S[C@@H]2[C@H](NC(=O)Cc3ccccc3)C(=O)N2[C@H]1C(=O)O.c1ccc(CCNCc2ccccc2)cc1 [benethamine penicillin]
E. coli DH5α strain; 5 and 25 mg/ml, M9 minimal liquid and agar plate medium
  suppression of growth of E. coli DH5α after storage: able to completely suppress the growth
E. coli DH5α strain; 5 and 25 mg/ml, TB liquid and TB agar plate medium
  suppression of growth of E. coli DH5α after storage: able to completely suppress the growth

## CC1(C)S[C@@H]2[C@H](NC(=O)Cc3ccccc3)C(=O)N2[C@H]1C(=O)O.CC1(C)S[C@@H]2[C@H](NC(=O)Cc3ccccc3)C(=O)N2[C@H]1C(=O)O.c1ccc(CNCCNCc2ccccc2)cc1 [benzathine benzylpenicillin]
E. coli DH5α strain; 0.5 and 2.5 mg/ml, LB liquid and LB agar plate medium
  suppression of growth of E. coli DH5α after storage: able to completely suppress the growth
E. coli DH5α strain; 0.5 and 2.5 mg/ml, SOC liquid and SOC agar plate medium
  suppression of growth of E. coli DH5α after storage: able to completely suppress the growth
[3]
  duration of medicine effect: 3-4 weeks

## CC1(C)S[C@@H]2[C@H](NC(=O)C(C(=O)O)c3ccccc3)C(=O)N2[C@H]1C(=O)O (stereo partly drawn) [carbenicillin]
E. coli DH5α strain; [5]
  suppression of E. coli growth after storage: unable to suppress E. coli growth completely
E. coli DH5α strain
  shelf life of culture media containing the antibiotic: no more than two
E. coli DH5α strain; [6]
  suppression of E. coli growth after storage: unable to suppress E. coli growth completely
E. coli DH5α strain; [7]
  suppression of E. coli growth after storage: unable to suppress E. coli growth completely

## CC(=O)OCC1=C(C(=O)O)N2C(=O)[C@@H](NC(=O)CSc3ccncc3)[C@H]2SC1.CC(=O)OCC1=C(C(=O)O)N2C(=O)[C@@H](NC(=O)CSc3ccncc3)[C@H]2SC1.c1ccc(CNCCNCc2ccccc2)cc1 [cephapirin benzathine]
E. coli DH5α strain; 0.25 and 1 mg/ml, M9 minimal liquid and agar plate medium
  suppression of growth of E. coli DH5α after storage: able to completely suppress the growth
E. coli DH5α strain; 0.25 and 1 mg/ml, YT liquid and YT agar plate medium
  suppression of growth of E. coli DH5α after storage: able to completely suppress the growth
[4]
  time injection suspension can be stored stably: ≤ 36 months

## Cc1onc(-c2ccccc2Cl)c1C(=O)N[C@@H]1C(=O)N2[C@@H]1SC(C)(C)[C@@H]2C(=O)O.Cc1onc(-c2ccccc2Cl)c1C(=O)N[C@@H]1C(=O)N2[C@@H]1SC(C)(C)[C@@H]2C(=O)O.c1ccc(CNCCNCc2ccccc2)cc1 [cloxacillin benzathine]
E. coli DH5α strain; 0.5 and 2.5 mg/ml, YPD liquid and YPD agar plate medium
  suppression of growth of E. coli DH5α after storage: able to completely suppress the growth
E. coli DH5α strain; 0.5 and 2.5 mg/ml, YT liquid and YT agar plate medium
  suppression of growth of E. coli DH5α after storage: able to completely suppress the growth

## CC1(C)S[C@@H]2[C@H](NC(=O)Cc3ccccc3)C(=O)N2[C@H]1C(=O)O.CCN(CC)CCOC(=O)c1ccc(N)cc1 [procaine penicillin]
E. coli DH5α strain; 10, 40 and 80 mg/ml, LB liquid and LB agar plate medium
  suppression of growth of E. coli DH5α after storage: able to completely suppress the growth
E. coli DH5α strain; 10, 40 and 80 mg/ml, SOC liquid and SOC agar plate medium
  suppression of growth of E. coli DH5α after storage: able to completely suppress the growth
[3]
  duration of medicine effect: ≤ 48 h
